For series [1], the system named is PC3 human prostate cancer. Put plainly: Radiotherapy study in PC-3 SCID mouse xenograft model. In kind it is in vivo. To be noted: after treatment. The procedure: PC-3 (human prostate cancer, from ATCC) are maintained in Ham's F-12K media supplemented with 10% fetal bovine serum. Tumor cell suspension (1×10^6 cells in phosphate-buffered saline) is injected s.c. into the right flank of male SCID mice (6-8 weeks, C.B-17/IcrHsd-Prkcd^scid, Harlan). Animals are given free access to food and water, tumor growth and animal weight are monitored. Upon reaching 4-5 mm in diameter, mice will be divided into groups of 6 for therapy study.
Single injection of SF404A at Day 0
Groups: • (1) 5 study groups: 4 treatment+1 control • (2) N=6 per group • (3) 4 acute dose levels: 50, 150, 250 and 500 μCi per mouse • (4) Control group dosed with equivalent mass amount of NM404: 0 μCi per mouse (“cold” NM404)

Another series has as its system spontaneous lung tumor. Description: Bioscan imaging of spontaneous lung tumor. In kind it is in vivo, Apc^Min mouse. To be noted: 4 days post injection. The source says: FIG. 13. Bioscan image (A) obtained 4 days post ^125I-NM404 injection into an Apc^Min mouse.
(§1) NM404 has now been evaluated in 27 animal tumor models, including several lung, and it is clear that once the agent enters tumor cells, it reaches a metabolic dead end and becomes trapped. […] NM404 is also retained in spontaneous murine lung tumors (FIG. 13). Using ^125I-labeled NM404, the inventors have been able to image mammary and prostate tumors in mice in excess of 60 days. […] Imaging and tissue distribution studies performed in mouse models aimed at determining the uptake characteristics in a wide variety of tumor models are summarized in Table 2.

Another series deals with Mammary SCC. Put plainly: Tumor models examined with NM404 (Table 2). Conditions: Squamous cell carcinoma. In kind it is in vivo, Apc/^min+ mouse.
Excerpt: as §1
(§2) Although tumor retention can be explained by a lack of metabolic phospholipase enzymes in the tumor cell membranes, the exact mechanism of tumor cell uptake is unknown. […] The inventors are currently evaluating the selectivity of NM404 in a unique mouse tumor model developed at Wisconsin, wherein both preneoplastic hyperplasias and malignant adenocarcinomas form spontaneously in the mammary gland. […] If this initial observation is validated, then via genomic and or proteomic analysis the inventors may be able to identify a key genetic difference between malignant tumors and their non malignant predecessor cells. This could identify a completely new molecular therapeutic target that may be universal for all types of cancer.

The test system of a further series is Mammary Adenocarcinoma. Description: Tumor models examined with NM404 (Table 2). Format: in vivo, Apc/^min+ mouse.
Excerpt: as §1, §2

The test system of series [2] is prostate and A549 lung cancer tumors. Put plainly: Comparative biodistribution in SCID mouse prostate and A549 lung cancer tumor models. To be noted: in vivo. The protocol:
In one such example in a rat mammary tumor model, tumor-to-normal tissue ratios reached a maximum at 96 hours with a tumor-to-blood ratio of 8.6 and tumor-to-muscle ratio of 20:1.
Extensive biodistribution data for the prototype agent ^125I-NM324 in several tumor models has previously been reported. […] For example, in a rat mammary tumor model, tumor-to-normal tissue ratios reached a maximum at 96 hours with a tumor-to-blood ratio of 8.6 and tumor-to-muscle ratio of 20:1. […] Comparative biodistribution data for NM324 and NM404 in SCID mice have been obtained in prostate and A549 lung cancer tumor models.

Series [3] can be described thus: MIRD extrapolation of rat tissue distribution data to permissible human dose. The arrangement: species or system human (from rat data). An excerpt: Accordingly the inventors have conducted the preliminary pharmacokinetic studies in human lung cancer patients at 1 mCi. Similar extrapolative calculation of the dosimetry for ^124I-NM404 afforded a similar 2 mCi dose level again based on projected dosimetry to the adrenals and bladder wall. Preliminary human data (5 patients), however, indicate very little uptake and retention of the agent into any abdominal organ (including the bladder and adrenals) with the exception of the liver which returns to background levels within 11 days.
Dosing of radioiodinated ^124I NM404 will be based on MIRD extrapolation of the iodine-131 dosimetry data derived from this ongoing study. The ^131I-NM404 dose is currently calculated as follows: Animal biodistribution data is used to determine the percentage of injected dose/organ at varying time points. These animal data are extrapolated to man by means of MIRD formalism (MIRDOSE PC v3.1) using standard conversion factors for differences in organ mass and anatomy between rat and standard man, providing predicted human organ doses; Based on these predicted doses, the permissible mCi dose to be injected into humans is determined using the maximal doses legally permitted by RDRC regulations for specific human tissue as defined in the Federal Register (21CFR Part 361.1) e.g. whole body, blood, blood forming tissues, eye lens, gonads—3 rem/dose; any other tissue—5 rem/dose. This approach was previously used to bring both NM324 and NM404 to clinical use, resulting in a calculated dose of 1 mCi.

The subject of a further series is phospholipase D (PLD). Put plainly: Phospholipase D (PLD) assay. Format: biochemical, cabbage. To be noted: in the presence of ethanol. The protocol:
Finally, several PLE analogs were subjected to a phospholipase D (PLD) assay. The PLD, which was isolated from cabbage, is similar to mammalian PLD in that the cabbage form affords phosphatidylethanol-type products in addition to phosphatidic acid when the enzymatic reaction is performed in the presence of ethanol. Several of the PLE analogs subjected to these assay conditions did give rise to the phosphatidylethanol adduct, indicating possible interaction with PLD. The inventors believes that NM404 is a metabolic substrate to human Phospholipase D, and that the relative absence of Phospholipase D in cancer cell membranes is the underlying mechanism for tumor-selective retention of NM404. Although known from the literature (reference[…]), it is still unclear why cancers lack PLD in their membranes.
As conclusion, the mechanism of selective retention of NM404 may be due to a decrease in the membrane levels of PLD, thus precluding metabolism and clearance of NM404 from the cell. […] This supports the finding of the in vitro cell culture uptake and retention study wherein it was shown that PLE analogs were sequestered by and subsequently metabolized by normal cells (which contained normal levels of PLD). […]

The next series deals with lymph node metastases. Description: Scintigraphy in metastatic prostate tumor model. To be noted: in vivo. An excerpt:
A variety of tumors including mammary, prostate, squamous cell carcinoma, ovarian, colorectal, and melanoma were successfully visualized by scintigraphy with NM324.
This agent has also been evaluated preclinically in a metastatic prostate tumor model in which lymph node metastases were clearly delineated by scintigraphy following intravenous administration of NM404 but, pertinently, the tracer was not retained by uninvolved lymph nodes. Selectivity of NM404 for malignant cells is particularly relevant in prostate cancer as conventional tumor markers such as PSA may also be elevated in a variety of benign disease states including prostatitis and benign prostatic hypertrophy. Furthermore, selective uptake and prolonged retention by tumor cells supports a role for NM404 as a tumor-selective diagnostic and therapeutic agent.

The test system of series [4] is benign intestinal adenomas, preneoplastic hyperplasias. Description: Selectivity for benign and preneoplastic lesions. In kind it is in vivo, mouse.
Excerpt: as §2

Data on two compounds can be found in patent publication US9579406B2, “Phospholipid ether analogs as agents for detecting and locating cancer, and methods thereof” (Cellectar, Inc., priority 2004, dated 2017).

In the case of `C[N+](C)(C)CCOP(=O)([O-])OCCCCCCCCCCCCCCCCCCc1ccc([125I])cc1` [Compound I-125-NM404], the “time at which treatment and control tumor growth curves separate” value in series [1] is 4-5 weeks. Besides, the “uptake into spontaneous lung tumor” value in the series with spontaneous lung tumor was “intense uptake of NM404 into the tumor”.

For the compound `C[N+](C)(C)CCOP(=O)([O-])OCCCCCCCCCCCCCCCCCCc1ccc(I)cc1` [NM-404, 18-(4-iodophenyl)-octadecylphosphocholine], in the series with Mammary SCC, the “NM404 Tumor Localization” value is listed as “Yes (Localization defined as >5% injected dose per gram tumor basis based on tissue distribution data)”. Besides, the “NM404 Tumor Localization” value in the series on Mammary Adenocarcinoma was “Yes (Localization defined as >5% injected dose per gram tumor basis based on tissue distribution data)”. Besides, in series [2], the tumor uptake result is “exceeding 25 % of the injected dose”. The “calculated dose for clinical use” value in series [3] is recorded as 1 mCi. In addition, in series [3] (new animal data), the “5 rad dose to adrenals” value was 2.2 mCi and the “5 rad testes dose” value is on record as 2.1 mCi. Moreover, the “substrate for PLD” value in the series with phospholipase D (PLD) is “a good substrate for this enzyme”. Further, the “localization in lymph node metastases” value with lymph node metastases is given as “clearly delineated by scintigraphy in a metastatic prostate tumor model without retention in uninvolved lymph nodes”. Moreover, the “uptake and retention in preneoplastic lesions” value in [4] (mammary gland model, preliminary) was “not taken up and retained in preneoplastic lesions”. For the same compound, the “localization in benign intestinal adenomas” value in series [4] (mouse, in vivo) is “does not localize in benign intestinal adenomas (polyps)”.
